Laboratory results reported in PubChem BioAssay AID1919003 (Molecular Pharmacology Branch, DTP, NCI, 2023).
pIC50: −log10 of the molar value.

Tested on: 786-0 complex spheroids with HUVEC/MSC, growth % test/control
Experiment: Anticancer human tumor 786-0 cell line growth inhibition [AhR];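 further: compound exposure lasted seven days before the read-out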
Details: for pIC50: curve of first compound; for viability, T/C: stronger effect = lower value
Excerpt: Multicellular complex tumor spheroid response to aryl hydrocarbon receptor antagonists in combination with a variety of drugs and investigational agents in selected tumor cell lines
The current study was undertaken to assess response to aryl hydrocarbon receptor antagonists in combination with standard-of-care drugs and investigational agents in solid tumor complex spheroid models. Complex spheroids include a stromal component modeled by human endothelial cells (HUVEC) and fibroblasts modeled by human mesenchymal stem cells (MSCs). The concentration ranges selected for each drug and investigational agent were based upon clinically achievable concentrations if the clinical Cmax of the agent was known.
Compounds. The drugs and investigational agents: BAY 2416964 (NSC825713), GNF351 (NSC835774), CH-223191 (NSC835775), CPI-455 (NSC825282), aza-TdCyd (NSC777586), decitabine (NSC127716), belinostat (NSC758774), entinostat (NSC756642), pevonedistat (NSC761192), tazemetostat (NSC777109), talazoparib (NSC765396), olaparib (NSC753686), selinexor (NSC780203), nedisertib (M3814, NSC802822), bortezomib (NSC756655), venetoclax (NSC766270), doxorubicin (NSC123127), elimusertib (BAY189344, NSC800525), ceralasertib (AZD6738, NSC777638), TAK-243 (NSC785004), alisertib (NSC759677), etoposide (NSC141540), topotecan (NSC609699), eribulin (NSC707389), gemcitabine (NSC613327), carboplatin (NSC241240), cisplatin (NSC119875), and SN-38 (NSC673596) were obtained from the National Cancer Institute (NCI) Developmental Therapeutics Program Chemical Repository (32). The FDA-approved anticancer drug set is available from the Developmental Therapeutics Program at https://dtp.cancer.gov/organization/dscb/obtaining/available plates.htm. […] The stock solutions were prepared in dimethyl sulfoxide (DMSO, Sigma-Aldrich, St. Louis, MO, cat. D2650), except for the platinum compounds which were prepared in saline (Quality Biological, Gaithersburg, MD, cat. 114-055-101), at 800-fold the tested concentration and stored at -70 degrees C prior to their use. All drugs and investigational agents were tested over a range starting from a high concentration at or near the clinical Cmax and decreasing in half-log increments. If the clinical Cmax for an agent had not been determined, the highest concentration tested was 10 microM (Table 1).
Cell Culture. All cells were maintained in an incubator at 37 degrees C and 5% CO2 with 95% humidity. The PDC lines were cultured according to standard operating procedures established by the NCI PDMR (https://pdmr.cancer.gov). Briefly, all PDCs were thawed and cultured in Matrigel-coated flasks prepared with a working solution of 1X Ham's F-12 nutrient mix, without supplementation (Invitrogen, Waltham, MA, cat. 11765054), 100 U/mL penicillin-streptomycin (Invitrogen, cat. 15140122), and 2.5% Matrigel (Corning Inc., Corning, NY, cat. 354248) for the first three passages. All PDCs were cultured in complete DMEM/F-12 media containing advanced DMEM/F-12 (Invitrogen, cat. 12634028), 4.9% defined fetal bovine serum, heat inactivated (HyClone Laboratories Inc., Logan, UT, cat. SH30070.03HI), 389 ng/mL hydrocortisone (Sigma-Aldrich, cat. H4001), 9.7 ng/mL human EGF recombinant protein (Invitrogen, cat. PHG0313), 23.4 microg/mL adenine (Sigma-Aldrich, cat. A2786), 97.3 U/mL penicillin-streptomycin (Invitrogen, cat. 15140122), 1.9 mM L-glutamine (Invitrogen, cat. 25030081), and 9.7 microM Y-27632 dihydrochloride (Tocris Bioscience, Bristol, United Kingdom, cat. 1254). The PDCs were cultured in complete DMEM/F12 media without 10 microM Y-27632 dihydrochloride for at least two passages prior to the screen. The established cell lines NCI-H1341 and […] were cultured in DMEM/F-12, HEPES (Invitrogen, cat. 11330032), 5% defined fetal bovine serum (HyClone Laboratories Inc., cat. SH30070.03), ITS premix universal culture supplement [insulin (5 microg/mL), transferrin (5 microg/mL), and selenious acid (5 ng/mL)] […]

[1] = second compound 0.1 µM, first compound 0.0316 µM
[2] = second compound 0.1 µM, first compound 0.1 µM
[3] = second compound 0.1 µM, first compound 0.316 µM
[4] = second compound 0.1 µM, first compound 1 µM
[5] = second compound 0.1 µM, first compound 3.16 µM
[6] = second compound 0.1 µM, first compound 10 µM
[7] = second compound 0.316 µM, first compound 0.0316 µM
[8] = second compound 0.316 µM, first compound 0.1 µM
[9] = second compound 0.316 µM, first compound 0.316 µM
[10] = second compound 0.316 µM, first compound 1 µM
[11] = second compound 0.316 µM, first compound 3.16 µM
[12] = second compound 0.316 µM, first compound 10 µM
[13] = second compound 1 µM, first compound 0.0316 µM
[14] = second compound 1 µM, first compound 0.1 µM
[15] = second compound 1 µM, first compound 0.316 µM
[16] = second compound 1 µM, first compound 1 µM
[17] = second compound 1 µM, first compound 3.16 µM
[18] = second compound 1 µM, first compound 10 µM
[19] = second compound 3.16 µM, first compound 0.0316 µM
[20] = second compound 3.16 µM, first compound 0.1 µM
[21] = second compound 3.16 µM, first compound 0.316 µM
[22] = second compound 3.16 µM, first compound 1 µM
[23] = second compound 3.16 µM, first compound 3.16 µM
[24] = second compound 3.16 µM, first compound 10 µM
[25] = second compound 10 µM, first compound 0.0316 µM
[26] = second compound 10 µM, first compound 0.1 µM
[27] = second compound 10 µM, first compound 0.316 µM
[28] = second compound 10 µM, first compound 1 µM
[29] = second compound 10 µM, first compound 3.16 µM
[30] = second compound 10 µM, first compound 10 µM

Work on `CC(C)CC(NC(=O)C(Cc1ccccc1)NC(=O)c1cnccn1)B(O)O` (stereo not given) + CC(CO)NC(=O)c1cc(-c2ccc(Cl)cc2)nn(-c2cnn(C)c2)c1=O yielded a pIC50 (second compound 0.1 µM) of 8.11, a pIC50 (second compound 0.316 µM) of 8.08 and a pIC50 (second compound 1 µM) of 8.07. The pIC50 (second compound 3.16 µM) was 8.10, the pIC50 (second compound 10 µM) was 8.10 and the viability, T/C (second compound 0.1 µM, first compound 0.000949 µM) was 108%. For the same compound, the viability, T/C (second compound 0.1 µM, first compound 0.003 µM) was 103%, the viability, T/C (second compound 0.1 µM, first compound 0.00949 µM) was 38.4% and the viability, T/C (second compound 0.1 µM, first compound 0.03 µM) was 0.34%. The viability, T/C (second compound 0.1 µM, first compound 0.0949 µM) was 0.27%, the viability, T/C (second compound 0.1 µM, first compound 0.3 µM) was 0.18% and the viability, T/C (second compound 0.316 µM, first compound 0.000949 µM) was 114%. It also gave a viability, T/C (second compound 0.316 µM, first compound 0.003 µM) of 117%, a viability, T/C (second compound 0.316 µM, first compound 0.00949 µM) of 41.9% and a viability, T/C (second compound 0.316 µM, first compound 0.03 µM) of 0.39%. The viability, T/C (second compound 0.316 µM, first compound 0.0949 µM) was 0.19%, the viability, T/C (second compound 0.316 µM, first compound 0.3 µM) was 0.19% and the viability, T/C (second compound 1 µM, first compound 0.000949 µM) was 112%. For the same compound, the viability, T/C (second compound 1 µM, first compound 0.003 µM) was 112%, the viability, T/C (second compound 1 µM, first compound 0.00949 µM) was 43.3% and the viability, T/C (second compound 1 µM, first compound 0.03 µM) was 0.56%. For the same compound, the viability, T/C (second compound 1 µM, first compound 0.0949 µM) was 0.17%, the viability, T/C (second compound 1 µM, first compound 0.3 µM) was 0.33% and the viability, T/C (second compound 3.16 µM, first compound 0.000949 µM) was 117%. For the same compound, the viability, T/C (second compound 3.16 µM, first compound 0.003 µM) was 118%, the viability, T/C (second compound 3.16 µM, first compound 0.00949 µM) was 37.6% and the viability, T/C (second compound 3.16 µM, first compound 0.03 µM) was 1.26%. It also gave a viability, T/C (second compound 3.16 µM, first compound 0.0949 µM) of 0.23%, a viability, T/C (second compound 3.16 µM, first compound 0.3 µM) of 0.25% and a viability, T/C (second compound 10 µM, first compound 0.000949 µM) of 120%. The viability, T/C (second compound 10 µM, first compound 0.003 µM) was 127%, the viability, T/C (second compound 10 µM, first compound 0.00949 µM) was 35.9% and the viability, T/C (second compound 10 µM, first compound 0.03 µM) was 1.88%. It also gave a viability, T/C (second compound 10 µM, first compound 0.0949 µM) of 0.9% and a viability, T/C (second compound 10 µM, first compound 0.3 µM) of 0.37%.

In the case of `Nc1ccccc1NC(=O)c1ccc(CNC(=O)OCc2cccnc2)cc1` + CC(CO)NC(=O)c1cc(-c2ccc(Cl)cc2)nn(-c2cnn(C)c2)c1=O, the pIC50 (second compound 0.1 µM) was 5.28, the pIC50 (second compound 0.316 µM) was 5.28 and the pIC50 (second compound 1 µM) was 5.32. It also gave a pIC50 (second compound 3.16 µM) of 5.34, a pIC50 (second compound 10 µM) of 5.39 and a viability, T/C [1] of 107%. The viability, T/C [2] was 104%, the viability, T/C [3] was 110% and the viability, T/C [4] was 104%. The viability, T/C [5] was 73.8%, the viability, T/C [6] was 20.3% and the viability, T/C [7] was 114%. For the same compound, the viability, T/C [8] was 99.3%, the viability, T/C [9] was 113% and the viability, T/C [10] was 101%. For the same compound, the viability, T/C [11] was 76.7%, the viability, T/C [12] was 15.9% and the viability, T/C [13] was 101%. For the same compound, the viability, T/C [14] was 112%, the viability, T/C [15] was 98.1% and the viability, T/C [16] was 104%. It also gave a viability, T/C [17] of 68.5%, a viability, T/C [18] of 16.9% and a viability, T/C [19] of 111%. The viability, T/C [20] was 110%, the viability, T/C [21] was 110% and the viability, T/C [22] was 92%. The viability, T/C [23] was 65.7%, the viability, T/C [24] was 18.8% and the viability, T/C [25] was 113%. The viability, T/C [26] was 114%, the viability, T/C [27] was 102% and the viability, T/C [28] was 96.4%. The viability, T/C [29] was 58% and the viability, T/C [30] was 18.8%.

With `O=C(C=Cc1cccc(S(=O)(=O)Nc2ccccc2)c1)NO` + CC(CO)NC(=O)c1cc(-c2ccc(Cl)cc2)nn(-c2cnn(C)c2)c1=O the pIC50 (second compound 0.1 µM) was 5.22, the pIC50 (second compound 0.316 µM) was 5.28 and the pIC50 (second compound 1 µM) was 5.26. It also gave a pIC50 (second compound 3.16 µM) of 5.31, a pIC50 (second compound 10 µM) of 5.33 and a viability, T/C [1] of 102%. It also gave a viability, T/C [2] of 106%, a viability, T/C [3] of 97.2% and a viability, T/C [4] of 107%. The viability, T/C [5] was 93.8%, the viability, T/C [6] was 15.2% and the viability, T/C [7] was 104%. It also gave a viability, T/C [8] of 101%, a viability, T/C [9] of 111% and a viability, T/C [10] of 110%. It also gave a viability, T/C [11] of 79%, a viability, T/C [12] of 12% and a viability, T/C [13] of 100%. For the same compound, the viability, T/C [14] was 104%, the viability, T/C [15] was 104% and the viability, T/C [16] was 105%. It also gave a viability, T/C [17] of 84.7%, a viability, T/C [18] of 12.5% and a viability, T/C [19] of 103%. For the same compound, the viability, T/C [20] was 102%, the viability, T/C [21] was 103% and the viability, T/C [22] was 101%. It also gave a viability, T/C [23] of 73.6%, a viability, T/C [24] of 10% and a viability, T/C [25] of 109%. It also gave a viability, T/C [26] of 108%, a viability, T/C [27] of 106% and a viability, T/C [28] of 94.8%. For the same compound, the viability, T/C [29] was 72.6% and the viability, T/C [30] was 8.46%.
